Data: patent US20060025419A1, “Imidazoquinoxaline compound for the treatment of melanoma” (priority 2004, published 2006)

How the values were obtained:
[1] = test system: Normal human epidermal melanocytes (NHEM); assay: Growth of cultured cells, hemocytometer counting; format: cell-based
From the text: (§1) A super-repressor form of human IκBα (S32, 36A) resistant to degradation and mutant IKKβ […]) was kindly provided by Javier […] Cancer Center, University of California-San Diego School of Medicine). Antibodies to IKKα (H-744), IKKβ (H-470), Bcl-2, Bax and AIF were purchased from Santa Cruz Biotechnology, Inc. (Santa Cruz, Calif.). […] N-acetyl-L-cysteine (NAC) and Tiron were from Sigma-Aldrich (St. Louis, Mo.). Normal human epidermal melanocytes (NHEM) were provided by the Skin Disease Research Center in Vanderbilt University School of Medicine. NHEM were cultured in 154 medium with 1× human melanocyte growth supplement (Cascade Biologicals, Inc.). The melanoma cell lines, Sk Mel5, A375 and Hs294T, originally established from human metastatic melanoma, were purchased from American Type Culture Collection and cultured in DMEM: Ham's F-12 medium containing 10% FBS, 2 mM of L-glutamine, 100 μM of MEM Non-Essential Amino Acids (Life Technologies, Inc.), and 1 mM of sodium pyruvate (Sigma Chemical Co.). Aberrant activation of NF-κB has been associated with carcinogenesis, and constitutively high IKK activity has been detected in many tumor types, including human melanoma (Yang & Richmond, 2001; […] et al., 2003; […] et al., 2003). IKK is a major regulator of the NF-κB pathway and therefore represents an attractive therapeutic target in advanced cancers. […] After three days of culture, the cell numbers were determined by hemocytometer counting (Table 1).

A375 cells = assay: Growth of cultured melanoma cells, hemocytometer counting; format: cell-based, human
From the text: as §1

Hs 294T cells = assay: as above; format: cell-based, human
From the text: as §1

SK-Mel-5 tumors = assay: Melanoma tumor growth in nude mice; format: in vivo; settings: 21 days
Procedure: FIGS. 1A-1E. […] After 72 h treatment, cells were photographed. […] 2×10^6 SK-Mel-5 melanoma cells were subcutaneously inoculated into nude mice (n=5 mice per group). […] Tumor size was measured using an electronic digital caliper at intervals of 4 days. Tumor volume was calculated and statistically analyzed.
Animal experimentation was undertaken according to protocols approved by the Institutional of Animal Care and Use Committee at Vanderbilt University. […] Tumor size was measured with an electronic digital caliper. Tumor volume was calculated by width^2×length×0.52 and expressed as mean±SD mm^3.

Hs 294T tumors = assay: Melanoma tumor growth in nude mice; format: in vivo; settings: 75 mg/kg orally once daily, 21 days, vs vehicle
[2] = Body weight and tolerability in treated tumor-bearing mice; format: in vivo
IKK = target: T1, IKK (Homo sapiens, UniProt O14920+O15111); assay: Cell-free IKK kinase assay with washing (reversibility); format: biochemical; settings: immunopurified IKK, 10 μM, 20 min, washed three times
T1 construct: Equal aliquots of cytoplasmic IKK proteins were immunoprecipitated with anti-IKKα/β antibodies; endogenous in cells; host or cells: SK-Mel-5 human melanoma cells, cytoplasmic extract, immunoprecipitated on Protein A/G agarose beads
Procedure: To analyze the IKK activity, cytoplasmic extracts were prepared from cells cultured for 24 h in serum-free medium. Cells were mechanically released from tissue culture plates by scraping in cold PBS according to standard protocols. Cells were collected by centrifugation (800×g), and then resuspended in lysis buffer [10 mM HEPES (pH 7.9), 10 mM KCl, 0.1 mM EDTA, 0.1 mM EGTA, 0.1% NP40, 1 mM DTT, and 0.5 mM phenylmethylsulfonyl fluoride] with Complete Protein Inhibitors (Roche). 400 μg aliquots of cytoplasmic extracts were incubated with 1 μg each of IKKα and IKKβ polyclonal antibodies (Santa Cruz Biotechnology) and 60 μg aliquots of Protein A/G agarose-conjugated beads for 4 h at 4° C. […] The reaction mixtures were resolved by SDS-PAGE, transferred to nitrocellulose membrane, and phosphorylated IκB was detected by autoradiography.
Equal aliquots of cytoplasmic IKK proteins were immunoprecipitated with anti-IKKα/β antibodies and IKK activity was determined in an in vitro kinase assay using recombinant IκBα protein as a substrate for IκB kinase. The IKK activity was determined by autoradiography.

SK-Mel-5 cells [3] = assay: Electron microscopy of cultured melanoma cells; format: cell-based, human; settings: 10 μM, 24 h
SK-Mel-5 cells [4] = assay: Western blot / confocal analysis of apoptotic proteins in subcellular fractions; format: cell-based, human; settings: 10 μM
Procedure: Subcellular mitochondria and cytoplasm were prepared and subjected to Western blot analysis for Bcl-2 and Bax. […] After exposure, mitochondria were isolated and incubated with 80 μM 3,3′dihexyloxacarbocyanine iodide (DiOC6) at 37° C. for 15 min. Δψm was determined by FACS analysis using 484/530 nm filters within 10 min while gating the forward and sideward scatters on intact mitochondria (FIG. 5C). […] Subcellular extracts were prepared and subjected to Western blot analysis for cytochrome-C and AIF. […] The supernatant was assessed for cytochrome-c release. 200 μM Ca^2+ was used as a positive control.
The cellular caspase-3 activity in samples was detected as described in Materials and Methods. […] Cells were fixed and stained with propidium iodide staining as described in FIG. 4H. The percentage of cell death was measured with flow cytometry. […] Cytosol was extracted and subjected to Western blot analysis for AIF, cytochrome-c (cyto-C) and actin. Actin was used as a loading control protein. […] Ref-1 was used as a nuclear marker protein. All data shown here were from three independent experiments. […] SK-Mel-5 cells were exposed to 10 μM BMS and/or pan-caspase inhibitor (Z-VAD-fmk, 50 μM).
Proteins from cell extracts were separated by 12% SDS-PAGE and electrophoretically transferred to nitrocellulose membranes. Nonspecific binding was blocked with 5% milk in TBST buffer (4 mM Tris base, 100 mM NaCl, pH 7.5, 0.05% Tween), incubated with the indicated primary antibodies with a dilution of 1:1000 at room temperature for 2 h or 4° C. for overnight and then with horseradish peroxidase-conjugated secondary antibody for 1 h. Blots were visualized by enhanced chemiluminescence assay.
The Mitochondria Isolation Kit (Pierce, Rockford, Ill.) was used for isolation of mitochondria from cultured melanoma cells according to the manufacture's instruction for the Reagent-based method. Briefly, cells (2×10^7) were collected, washed with PBS buffer and resuspended in 0.8 ml of Reagent A on ice for 2 min. 10 μl of Reagent B was added and samples were kept on ice, with vortexing very minute for 5 min. After addition of 0.8 ml of Reagent C, the mixture was centrifuged at 700×g for 10 min to remove the cell debris and nuclei. The supernatant was then centrifuged at 3,000×g for 15 min. The pellet (mitochondria) was washed with Reagent C. The purity of mitochondria was determined by Western blotting with β-actin, where β-actin negative preparation were fully to be pure. The supernatant (cytosolic fraction) was further cleared by centrifugation at 12,000×g for 15 min.
Cells were incubated with the anti-AIF polyclonal antibody for 2 h. Cells were washed twice and incubated with the secondary antibody conjugated with FITC for 1 h.

[5] = test system: mitochondria isolated from SK-Mel-5; assay: Cytochrome-c release from isolated mitochondria; parameters: species or system human; settings: 10 μM, 4° C., 30 min
Procedure: FIGS. 5A-5E. […] (FIG. 5A) Redistribution of Bcl-2 and Bax in mitochondria. […] Subcellular mitochondria and cytoplasm were prepared and subjected to Western blot analysis for Bcl-2 and Bax. (FIG. 5B) Dissipation of mitochondrial Δψm. […] After exposure, mitochondria were isolated and incubated with 80 μM 3,3′dihexyloxacarbocyanine iodide (DiOC6) at 37° C. for 15 min. Δψm was determined by FACS analysis using 484/530 nm filters within 10 min while gating the forward and sideward scatters on intact mitochondria (FIG. 5C). (FIG. 5D) Release of cytochrome-C and AIF. […] Subcellular extracts were prepared and subjected to Western blot analysis for cytochrome-C and AIF. […] The supernatant was assessed for cytochrome-c release. […]
The Mitochondria Isolation Kit (Pierce, Rockford, Ill.) was used for isolation of mitochondria from cultured melanoma cells according to the manufacture's instruction for the Reagent-based method. […] The purity of mitochondria was determined by Western blotting with β-actin, where β-actin negative preparation were fully to be pure. […]
Mitochondria play a crucial role in the regulation of programmed cell death (Zamzami et al., 1995a; 1995b; 1996a; 1996b). […] To investigate alteration of the apoptotic proteins in mitochondria during BMS-345541-induced apoptosis, the ratio of Bcl-2 and Bax distributed in mitochondria was analyzed in SK-Mel-5 cells using Western blot. […]

caspase-3 = assay: Caspase-3 activity assay (Ac-DEVD-pNA) in cytosol extracts; format: cell-based, human

T1 sequence (O14920 whole entry): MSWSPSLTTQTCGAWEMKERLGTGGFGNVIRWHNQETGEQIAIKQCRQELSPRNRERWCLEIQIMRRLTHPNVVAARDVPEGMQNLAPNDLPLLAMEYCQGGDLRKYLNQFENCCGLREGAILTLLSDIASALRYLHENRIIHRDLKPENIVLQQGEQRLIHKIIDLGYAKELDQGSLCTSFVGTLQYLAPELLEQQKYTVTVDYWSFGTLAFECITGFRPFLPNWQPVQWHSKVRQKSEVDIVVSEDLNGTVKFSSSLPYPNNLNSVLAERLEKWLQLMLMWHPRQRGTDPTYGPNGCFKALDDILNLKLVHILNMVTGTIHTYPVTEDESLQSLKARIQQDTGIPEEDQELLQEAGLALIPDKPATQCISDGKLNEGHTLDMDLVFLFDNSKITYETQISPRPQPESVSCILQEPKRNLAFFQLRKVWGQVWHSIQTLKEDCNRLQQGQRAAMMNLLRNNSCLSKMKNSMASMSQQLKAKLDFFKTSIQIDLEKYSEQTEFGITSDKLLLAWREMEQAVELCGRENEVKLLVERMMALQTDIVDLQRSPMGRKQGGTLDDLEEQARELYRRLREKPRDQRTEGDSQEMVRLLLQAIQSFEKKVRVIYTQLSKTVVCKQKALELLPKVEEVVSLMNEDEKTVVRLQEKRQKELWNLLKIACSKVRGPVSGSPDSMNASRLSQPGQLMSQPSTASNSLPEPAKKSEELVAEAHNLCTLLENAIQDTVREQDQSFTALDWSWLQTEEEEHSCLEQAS
T1 sequence (O15111 whole entry): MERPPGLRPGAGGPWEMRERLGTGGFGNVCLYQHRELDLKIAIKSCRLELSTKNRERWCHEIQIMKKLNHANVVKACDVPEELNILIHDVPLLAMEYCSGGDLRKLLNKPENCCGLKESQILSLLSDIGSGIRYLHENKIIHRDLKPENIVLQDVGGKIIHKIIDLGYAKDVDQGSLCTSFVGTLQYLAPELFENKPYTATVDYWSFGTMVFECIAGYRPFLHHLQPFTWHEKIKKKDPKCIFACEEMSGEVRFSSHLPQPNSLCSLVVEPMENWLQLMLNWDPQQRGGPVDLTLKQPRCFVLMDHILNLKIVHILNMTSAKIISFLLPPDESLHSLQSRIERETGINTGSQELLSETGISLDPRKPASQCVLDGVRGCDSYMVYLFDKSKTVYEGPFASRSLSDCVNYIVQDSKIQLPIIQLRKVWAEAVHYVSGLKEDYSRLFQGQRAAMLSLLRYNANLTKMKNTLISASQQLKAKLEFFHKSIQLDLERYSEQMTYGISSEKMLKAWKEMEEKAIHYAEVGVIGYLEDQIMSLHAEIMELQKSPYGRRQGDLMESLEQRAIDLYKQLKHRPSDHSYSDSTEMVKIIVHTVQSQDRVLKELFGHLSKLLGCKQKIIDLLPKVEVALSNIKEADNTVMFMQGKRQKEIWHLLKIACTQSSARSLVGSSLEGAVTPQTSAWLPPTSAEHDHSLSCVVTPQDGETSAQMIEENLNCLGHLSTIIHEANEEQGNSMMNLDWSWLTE
T1 sequence (Q9Y6K9 whole entry partner): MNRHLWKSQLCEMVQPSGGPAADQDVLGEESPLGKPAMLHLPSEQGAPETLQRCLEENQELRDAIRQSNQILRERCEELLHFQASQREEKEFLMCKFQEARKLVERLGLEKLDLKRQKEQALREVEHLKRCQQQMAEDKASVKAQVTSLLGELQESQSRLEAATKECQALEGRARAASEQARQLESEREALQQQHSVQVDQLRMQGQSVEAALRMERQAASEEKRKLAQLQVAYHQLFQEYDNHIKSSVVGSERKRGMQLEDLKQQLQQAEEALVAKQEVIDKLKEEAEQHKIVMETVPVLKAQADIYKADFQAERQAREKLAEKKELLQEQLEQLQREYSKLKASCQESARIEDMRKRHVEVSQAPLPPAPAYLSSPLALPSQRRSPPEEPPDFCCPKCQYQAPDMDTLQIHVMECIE

Cc1ccc2nc(NCCN)c3ncc(C)n3c2c1.Cl [BMS-345541, 4(2′-aminoethyl)amino-1,8-dimethylimidazo(1,2-a)quinoxaline]
cell number after three days of culture ([1]; 0.1 μM): 4.8 ± 0.28 | cell number after three days of culture ([1]; 1.0 μM): 4.9 ± 0.38 | cell number after three days of culture ([1]; 10 μM): 0.18 ± 0.04 | cell number after three days of culture (A375 cells; A375, 0.1 μM): 3.2 ± 0.38 10^5 | cell number after three days of culture (A375 cells; A375, 1.0 μM): 1.6 ± 0.38 10^5 | cell number after three days of culture (A375 cells; A375, 10 μM): 0.020 ± 0.01 10^5 | cell number after three days of culture (A375 cells; A375, 100 μM): 0 10^5 | cell number after three days of culture (Hs 294T cells; 0.1 μM): 1.9 ± 0.15 10^5 | cell number after three days of culture (Hs 294T cells; 1.0 μM): 2.2 ± 0.42 10^5 | cell number after three days of culture (Hs 294T cells; 10 μM): 0.013 ± 0.01 10^5 | cell number after three days of culture (Hs 294T cells; 100 μM): 0 10^5 | SK-Mel-5 tumor growth (FIG. 1B) (SK-Mel-5 tumors; 10, 25 and 75 mg/kg orally once daily): effectively inhibits SK-Mel-5 tumor growth in a dose-dependent manner | inhibition of tumor growth (SK-Mel-5 tumors; SK-Mel-5 tumors, 75 mg/kg orally once daily, vs vehicle): 86±2.8% | inhibition of tumor growth (Hs 294T tumors): 67±3.4% | average loss of body weight ([2]; 10 mg/kg orally once daily): 5% | average loss of body weight ([2]; 25 mg/kg orally once daily): 9% | average loss of body weight ([2]; 75 mg/kg orally once daily): 14% | tolerability in mice ([2]; oral, once daily, 21 days): well tolerated | reversibility of IKK inhibition by washing (IKK): reversed after the washing steps | morphology under electron microscopy (SK-Mel-5 cells [3]): typical feature of apoptosis | time of cytochrome-c release into cytosol (SK-Mel-5 cells [4]): 14 h | time of initiation of AIF release into cytosol (SK-Mel-5 cells [4]): 4 h | release of pro-apoptotic molecules from mitochondria (SK-Mel-5 cells [4]; 24 h, Western blot): mitochondrial cytochrome-c release into the cytoplasm and AIF nuclear translocation | direct action on isolated mitochondria (cytochrome-c release into supernatant) [5]: no direct action | specific caspase-3 activity (caspase-3; SK-Mel-5, 10 μM BMS-345541, 36 h): 1.6±0.092 pmol/min/μg protein | specific caspase-3 activity (caspase-3; SK-Mel-5, 10 μM BMS-345541 in combination with 50 μM Z-VAD-fmk, 36 h): 0.44±0.035 pmol/min/μg protein
